Starred links: 1 amine or outer side, 2 acyl side, 3 side chain; linkers in the order of their positions; H or OH if unused. Non-standard residues stand in square brackets, D forms with d. Residues, ends and D or L forms follow the SMILES beside them. X3 = O=C(Cn1c(=O)n(C2CCN([*:1])CC2)c2ccccc21)[*:2]; X7 = O=C(Cn1c(=O)c2ccccc2c2ccc(N[*:1])cc21)[*:2]; Butenoyl(2E,4-amino) = O=C(/C=C/CN[*:1])[*:2]; X4 = O=C(Cn1c2c(c3ccccc31)CN([*:1])CC2)[*:2]; Oic = O=C(O)[C@@H]1C[C@@H]2CCCC[C@@H]2N1; X1 = O=C(C/C=C/c1ccccc1CN[*:1])[*:2]; X6 = O=C(/C=C/c1ccccc1CCN[*:1])[*:2]; X2 = O=C(/C=C/c1ccccc1CN[*:1])[*:2]; dTic = O=C(O)[C@H]1Cc2ccccc2CN1; 12Ado = NCCCCCCCCCCCC(=O)O; Nphe = O=C(O)CNCc1ccccc1; Ahx = NCCCCCC(=O)O
Columns and labels:
[1] = biological target: T1, human bradykinin B2 receptor (Homo sapiens, UniProt P30411); test: Radioligand binding, H2O.2 cell membranes, 3H-bradykinin
T1 construct: The HindIII/XbaI fragment of one full-length clone, 126A, was inserted into pcDNAI neo vector; expressed in transfected cells
T1 sequence (P30411 1-391): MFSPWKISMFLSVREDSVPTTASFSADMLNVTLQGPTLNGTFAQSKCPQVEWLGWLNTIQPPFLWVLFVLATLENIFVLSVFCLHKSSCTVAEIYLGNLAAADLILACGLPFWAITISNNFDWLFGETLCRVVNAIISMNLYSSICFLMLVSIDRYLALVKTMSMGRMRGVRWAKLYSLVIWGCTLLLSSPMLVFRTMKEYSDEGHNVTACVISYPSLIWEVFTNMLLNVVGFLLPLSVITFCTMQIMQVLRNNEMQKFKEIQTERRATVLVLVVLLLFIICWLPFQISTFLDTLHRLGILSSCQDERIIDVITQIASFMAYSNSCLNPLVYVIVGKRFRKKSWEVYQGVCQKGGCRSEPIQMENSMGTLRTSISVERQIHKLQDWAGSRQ
Method: (§1) A human bradykinin B2 receptor was expressed in CHO/K cells. Briefly, approximately 2×10^6 plaques from a human uterus λgt10 cDNA library (Clontech Laboratories; Palo Alto, Calif.) were screened using a PCR fragment containing the coding region of the rat B2 receptor. This probe was generated by random-primed synthesis in the presence of α[^32 P]dATP. Duplicate filters were hybridized overnight at 42° C. in 1M NaCl, 50 mM Tris pH 7.5, 5× Denhardt's, 200 μg/ml salmon sperm DNA, 1% SDS, and 20% formamide. The filters were washed at 65° C. in 1× SSC and 1% SDS. Coincident positively hybridizing plaques were purified and rescreened with the same probe and stringency conditions. EcoRI fragments of positive clones were inserted into Bluescript/KS II+vector (Stratagene; La Jolla, Calif.) for sequence determination.
(§2) The nucleotide sequence of the cloned human B2 receptors was determined using double-stranded DNA and the dideoxy chain termination method. Commercially available T3 and T7 oligonucleotides (USB; Cleveland, Ohio) and synthetic 21-mer oligonucleotides (DNA/RNA Synthesizer; applied Biosystems Inc.; Palo Alto, Calif.) from both the known rat sequence and the determined human sequence were used to identify the nucleotide sequence from the 5' untranslated end to the BglII site in the 3' untranslated end of the clone.
(§3) CHO/K cells were plated in 2 ml of growth medium (Ham's F12 with 10% FBS) per 6 well plate and incubated at 37° C., 5% CO2 until they were 60% confluent. For each well, 4, 12, and 16 μg of DNA was diluted in 100 μl Opti-MEM I reduced serum medium (Gibco/BRL; Gaithersburg, Md.). 12 μl of TransfectASE reagent (Gibco/BRL) was diluted in a separate aliquot of 100 μl Opti-MEM I. The DNA and TransfecASE solutions were combined, mixed gently, and incubated at 25° C. for 15 minutes. This solution was then diluted to 1 ml with Opti-MEM I. Each well was washed twice with Opti-MEM I and 1 ml of the DNA/TransfectAse complex was added to each well. After a 5 hour incubation at 37° C. and 5% CO2, 1 ml of Ham's F12 with 20% FBS was added to each well and cells were incubated overnight. Media was replaced with growth medium and incubated for additional 24 hours.
(§4) This assay measures the ability of a bradykinin antagonist compound to compete for binding to the human B2 receptor with tritiated bradykinin or tritiated NPC17731, a bradykinin analog which is known to bind the B2 receptor and act as a bradykinin antagonist.
(§5) H2O.2 cells were grown to confluency in Ham's F12 media containing 10% FBS and 500 μg/ml Geneticin. Growth media was aspirated and the monolayer washed once with Dulbecco's PBS without Ca^++ and Mg^++. Cells were scraped in Dulbecco's PBS and centrifuged at 2,000×g for 10 minutes. Pellets were resuspended in 25 mM TES, 1 mM 1,10-phenanthroline pH 6.8 buffer and homogenized using a Ploytron at setting 5 for 10 seconds. An aliquot was taken for a protein determination using a BioRad protein assay kit. Membranes were centrifuged at 48,000×g for 10 minutes at 4° C. Pellets were resuspended in the TES buffer with 0.1% BSA and 0.014% bacitracin. 0.5 ml aliquots were frozen in liquid N2 and stored at -80° C. for up to 2 weeks.
(§6) Membranes from H2O.2 cells previously prepared were thawed at 37° C. and diluted in 25 mM TES, […] 1,10-phenanthroline pH 6.8 containing BSA and bactiracin. […] Non-specific binding was determined with 1 μM bradykinin. The tubes were incubated 90 minutes at 25° C. and the assay was terminated by rapid vacuum filtration onto Whatman GF/B filters presoaked with 0.2% PEI for 3 hours followed by 2×3 ml aliquots of ice-cold 50 mM Tris, pH 7.4. Radioactivity was counted with a Beckman scintillation counter.

[2] = biological target: T1, human bradykinin B2 receptor; test: Radioligand binding, H2O.2 cell membranes, 3H-NPC17731
Method: as §1, §2, §3, §4, §5, §6

[3] = Table 1, 3H-NPC17731, read-out: Radioligand Binding Human 3H17731
[4] = Table 2, read-out: Radioligand Binding, Ki Human 3HBK

Structure (SMILES) | Ki [2, 3] [nM] | Ki [1, 4] [nM] | also measured
N=C(N)NCCC[C@@H](N)C(=O)N[C@@H](CCCNC(=N)N)C(=O)NCc1ccccc1/C=C/CC(=O)N[C@@H](CO)C(=O)N1Cc2ccccc2C[C@@H]1C(=O)N1[C@H](C(=O)N[C@@H](CCCNC(=N)N)C(=O)O)C[C@@H]2CCCC[C@@H]21 (H-[dR]R[X1]S[dTic][Oic]R-OH) | 17 |  | Ki ([1]; Table 1, read-out: Radioligand Binding Human 3HBK): 51 nM
COc1ccc(N2CN(CC(=O)N3CCc4c(c5ccccc5n4CC(=O)N[C@@H](CCCNC(=N)N)C(=O)O)C3)C(=O)C23CCN(C(=O)[C@H](CCCNC(=N)N)NC(=O)[C@H](N)CCCNC(=N)N)CC3)cc1 [Compound 9] |  | 129 | 
N=C(N)NCCC[C@@H](N)C(=O)N[C@@H](CCCNC(=N)N)C(=O)N1CCC2(CC1)C(=O)N(CC(=O)N1CCc3c(c4ccccc4n3CC(=O)N[C@@H](CCCNC(=N)N)C(=O)O)C1)CN2C1CCCCC1 [Compound 10] |  | 229 | 
N=C(N)NCCC[C@@H](N)C(=O)N[C@@H](CCCNC(=N)N)C(=O)N1CCC2(CC1)C(=O)N(CC(=O)N1CCc3c(n(CC(=O)N[C@@H](CCCNC(=N)N)C(=O)O)c4ccccc34)C1)CN2C1CCCCC1 [Compound 4] |  | 1400 | 
N=C(N)NCCC[C@@H](N)C(=O)N[C@@H](CCCNC(=N)N)C(=O)N1CCC2(CC1)C(=O)N(CC(=O)N[C@@H](CO)C(=O)N1Cc3ccccc3C[C@@H]1C(=O)N1[C@H](C(=O)N[C@@H](CCCNC(=N)N)C(=O)O)C[C@@H]3CCCC[C@@H]31)CN2c1ccccc1 [drawing 59] |  |  | Ki [2]: 7.8 nM
N=C(N)NCCC[C@@H](N)C(=O)N[C@@H](CCCNC(=N)N)C(=O)NCCCCCCCCCCCC(=O)N[C@@H](CO)C(=O)N1Cc2ccccc2C[C@@H]1C(=O)N1[C@H](C(=O)N[C@@H](CCCNC(=N)N)C(=O)O)C[C@@H]2CCCC[C@@H]21 (H-[dR]R[12Ado]S[dTic][Oic]R-OH) | 31 |  | 
N=C(N)NCCC[C@@H](N)C(=O)N[C@@H](CCCNC(=N)N)C(=O)N1CCC2(CC1)C(=O)N(CC(=O)N1CCc3c(c4ccccc4n3CC(=O)N[C@@H](CCCNC(=N)N)C(=O)O)C1)CN2c1ccccc1 [Compound 7] |  | 325 | 
N=C(N)NCCC[C@@H](N)C(=O)N[C@@H](CCCNC(=N)N)C(=O)N1CCc2c(n(CCC(=O)N3CCC4(CC3)C(=O)N(CC(=O)N[C@@H](CCCNC(=N)N)C(=O)O)CN4c3ccccc3)c3ccccc23)C1 [Compound 3] |  | 570 | 
N=C(N)NCCC[C@@H](N)C(=O)N[C@@H](CCCNC(=N)N)C(=O)N1CCC2(CC1)C(=O)N(CC(=O)N1CCc3c(n(CCC(=O)N[C@@H](CCCNC(=N)N)C(=O)O)c4ccccc34)C1)CN2c1ccccc1 [Compound 8] |  | 223 | 

Continued, in another order:

Ki [2, 3] [nM] | Ki [1, 4] [nM] | Structure (SMILES) | also measured
229 |  | N=C(N)NCCC[C@@H](N)C(=O)N[C@@H](CCCNC(=N)N)C(=O)NC/C=C/C(=O)N[C@@H](CO)C(=O)N1Cc2ccccc2C[C@@H]1C(=O)N1[C@H](C(=O)N[C@@H](CCCNC(=N)N)C(=O)O)C[C@@H]2CCCC[C@@H]21 (H-[dR]R[Butenoyl(2E,4-amino)]S[dTic][Oic]R-OH) | 
 | 168 | N=C(N)NCCC[C@@H](N)C(=O)N[C@@H](CCCNC(=N)N)C(=O)N1CCC2(CC1)C(=O)N(CC(=O)N1CCc3c(c4ccccc4n3CC(=O)N[C@@H](CCCNC(=N)N)C(=O)O)C1)CN2CC1CCCCC1 [Compound 12] | 
23 |  | N=C(N)NCCC[C@@H](N)C(=O)N[C@@H](CCCNC(=N)N)C(=O)NCCc1ccccc1/C=C/C(=O)N[C@@H](CO)C(=O)N1Cc2ccccc2C[C@@H]1C(=O)N1[C@H](C(=O)N[C@@H](CCCNC(=N)N)C(=O)O)C[C@@H]2CCCC[C@@H]21 (H-[dR]R[X6]S[dTic][Oic]R-OH) | 
3.3 |  | N=C(N)NCCC[C@@H](N)C(=O)N[C@@H](CCCNC(=N)N)C(=O)Nc1ccc2c3ccccc3c(=O)n(CC(=O)N[C@@H](CO)C(=O)N3Cc4ccccc4C[C@@H]3C(=O)N3[C@H](C(=O)N[C@@H](CCCNC(=N)N)C(=O)O)C[C@@H]4CCCC[C@@H]43)c2c1 (H-[dR]R[X7]S[dTic][Oic]R-OH) | 
28 |  | N=C(N)NCCC[C@@H](N)C(=O)N[C@@H](CCCNC(=N)N)C(=O)NCc1ccccc1/C=C/C(=O)N(CC(=O)N[C@@H](CO)C(=O)N1Cc2ccccc2C[C@@H]1C(=O)N1[C@H](C(=O)N[C@@H](CCCNC(=N)N)C(=O)O)C[C@@H]2CCCC[C@@H]21)Cc1ccccc1 (H-[dR]R[X2][Nphe]S[dTic][Oic]R-OH) | 
58 |  | N=C(N)NCCC[C@@H](N)C(=O)N[C@@H](CCCNC(=N)N)C(=O)N1CCC(n2c(=O)n(CC(=O)N[C@@H](CO)C(=O)N3Cc4ccccc4C[C@@H]3C(=O)N3[C@H](C(=O)N[C@@H](CCCNC(=N)N)C(=O)O)C[C@@H]4CCCC[C@@H]43)c3ccccc32)CC1 (H-[dR]R[X3]S[dTic][Oic]R-OH) | 
 | 285 | Cc1cc(C)nc(NCCC[C@@H](NC(=O)Cn2c3c(c4ccccc42)CCN(C(=O)CN2CN(c4ccccc4)C4(CCN(C(=O)[C@@H](N)CCCNC(=N)N)CC4)C2=O)C3)C(N)=O)n1 [Compound 15] | 
 | 52 | Cc1cc(C)nc(NCCC[C@@H](NC(=O)Cn2c3c(c4ccccc42)CN(C(=O)CN2CN(CC4CCCCC4)C4(CCN(C(=O)[C@H](CCCNC(=N)N)NC(=O)[C@H](N)CCCNC(=N)N)CC4)C2=O)CC3)C(N)=O)n1 [Compound 20] | 
100 |  | N=C(N)NCCC[C@@H](N)C(=O)N[C@@H](CCCNC(=N)N)C(=O)NCCCCCC(=O)N[C@@H](CO)C(=O)N1Cc2ccccc2C[C@@H]1C(=O)N1[C@H](C(=O)N[C@@H](CCCNC(=N)N)C(=O)O)C[C@@H]2CCCC[C@@H]21 (H-[dR]R[Ahx]S[dTic][Oic]R-OH) | 
 | 78.4 | Cc1cc(C)nc(NCCC[C@@H](NC(=O)Cn2c3c(c4ccccc42)CCN(C(=O)CN2CN(c4ccccc4)C4(CCN(C(=O)[C@H](CCCNC(=N)N)NC(=O)[C@H](N)CCCNC(=N)N)CC4)C2=O)C3)C(N)=O)n1 [Compound 14] | 
78 |  | N=C(N)NCCC[C@@H](N)C(=O)N[C@@H](CCCNC(=N)N)C(=O)N1CCc2c(c3ccccc3n2CC(=O)N[C@@H](CO)C(=O)N2Cc3ccccc3C[C@@H]2C(=O)N2[C@H](C(=O)N[C@@H](CCCNC(=N)N)C(=O)O)C[C@@H]3CCCC[C@@H]32)C1 (H-[dR]R[X4]S[dTic][Oic]R-OH) | 
 | 212 | Cc1cc(C)nc(NCCC[C@@H](NC(=O)Cn2c3c(c4ccccc42)CCN(C(=O)CN2CN(c4ccccc4)C4(CCN(C(=O)[C@H](N)CCCNC(=N)N)CC4)C2=O)C3)C(N)=O)n1 [Compound 16] | 
 | 473 | CCCN1CN(CC(=O)N2CCc3c(c4ccccc4n3CC(=O)N[C@@H](CCCNC(=N)N)C(=O)O)C2)C(=O)C12CCN(C(=O)[C@H](CCCNC(=N)N)NC(=O)[C@H](N)CCCNC(=N)N)CC2 [Compound 11] | 

— US5817756A, “Pseudo- and non-peptide bradykinin receptor antagonists” (Scios Inc., priority 1995, dated 1998)
